# Measurements taken from patent US20140163012A1, “PYRIDO-/AZEPINO-BENZOFURAN AND PYRIDO-/AZEPINO-BENZOTHIOPHENE MCH-1 ANTAGONISTS, METHODS OF MAKING, AND USE THEREOF” (Albany Molecular Research, Inc., priority 2012, published 2014).
# Structures can show the parent of a compound that is named as a salt.
# Molecular target: human MCH-1 receptor (Homo sapiens, UniProt Q99705)
# Assay: Binding assay for human melanin-concentrating hormone (MCH-1) receptor, radioligand displacement on CHO-K1 cell membranes
# Conditions: for inhibition at 1 µM: read-out: MCH1 % inhibition @ 1 uM
# Chain of human MCH-1 receptor (Q99705 whole entry): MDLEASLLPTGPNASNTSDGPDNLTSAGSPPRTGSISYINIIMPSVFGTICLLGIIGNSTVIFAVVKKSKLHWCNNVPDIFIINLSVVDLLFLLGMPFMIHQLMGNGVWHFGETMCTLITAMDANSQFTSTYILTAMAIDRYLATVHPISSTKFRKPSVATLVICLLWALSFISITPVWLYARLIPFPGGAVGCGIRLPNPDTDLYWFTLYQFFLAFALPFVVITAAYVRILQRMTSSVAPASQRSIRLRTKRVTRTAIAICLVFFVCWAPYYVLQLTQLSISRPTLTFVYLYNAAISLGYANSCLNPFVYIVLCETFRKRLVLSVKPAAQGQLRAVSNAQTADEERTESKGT
SMILES,Ki [nM],inhibition at 1 µM [%]
"O=c1cc(OCc2ccc(C(F)(F)F)cn2)ccn1-c1ccc2c3c(oc2c1)CCNC3 [Example 115, 1-(1,2,3,4-Tetrahydrobenzofuro[3,2-c]pyridin-7-yl)-4-((5-(trifluoromethyl)pyridin-2-yl)methoxy)pyridin-2(1H)-one hydrochloride]",13,
"CN1CCCc2oc3cc(N4CCN(CCc5ccc(Cl)cn5)CC4=O)ccc3c2C1 [Example 94, 4-(2-(5-Chloropyridin-2-yl)ethyl)-1-(2-methyl-2,3,4,5-tetrahydro-1H-benzofuro[3,2-c]azepin-8-yl)piperazin-2-one hydrochloride]",103,
"O=c1cc(OCc2ccc(C(F)(F)F)nc2)ccn1-c1ccc2c3c(oc2c1)CCNCC3 [Example 47, 1-(2,3,4,5-Tetrahydro-1H-benzofuro[2,3-d]azepin-8-yl)-4-((6-(trifluoromethyl)pyridin-3-yl)methoxy)pyridin-2(1H)-one hydrochloride]",55,
"C[C@@H]1NCCc2oc3cc(-n4ccc(OCc5ccccn5)cc4=O)ccc3c21 [Example 35, (S)-1-(1-Methyl-1,2,3,4-tetrahydrobenzofuro[3,2-c]pyridin-7-yl)-4-(pyridin-2-ylmethoxy)pyridin-2(1H)-one hydrochloride]",57,
"O=C1CN(CCc2ccc(Cl)cc2)CCN1c1ccc2c3c(oc2c1)CCNC3 [Example 87, 4-(4-Chlorophenethyl)-1-(1,2,3,4-tetrahydrobenzofuro[3,2-c]pyridin-7-yl)piperazin-2-one hydrochloride]",58,
"O=c1cc(OCc2ccc(F)cn2)ccn1-c1ccc2oc3c(c2c1)CCNCC3 [Example 79, 4-((5-Fluoropyridin-2-yl)methoxy)-1-(2,3,4,5-tetrahydro-1H-benzofuro[2,3-d]azepin-9-yl)pyridin-2(1H)-one hydrochloride]",78,
"O=c1nc(CCc2ccc(Cl)cn2)ccn1-c1ccc2c3c(oc2c1)CCCNC3 [Example 103, 4-(2-(5-Chloropyridin-2-yl)ethyl)-1-(2,3,4,5-tetrahydro-1H-benzofuro[3,2-c]azepin-8-yl)pyrimidin-2(1H)-one hydrochloride]",8,
"O=c1cc(OCc2ccc(F)cn2)ccn1-c1ccc2oc3c(c2c1)CNCC3 [Example 76, 4-((5-Fluoropyridin-2-yl)methoxy)-1-(1,2,3,4-tetrahydrobenzofuro[3,2-c]pyridin-8-yl)pyridin-2(1H)-one hydrochloride]",,35
"O=c1cc(-c2ccc(C(F)(F)F)cn2)ccn1-c1ccc2c3c(oc2c1)CCCNC3 [Example 36, 1-(2,3,4,5-Tetrahydro-1H-benzofuro[3,2-c]azepin-8-yl)-4-(5-(trifluoromethyl)pyridin-2-yl)pyridin-2(1H)-one hydrochloride]",39,
"O=c1cc(-c2ccc(C(F)(F)F)nc2)ccn1-c1ccc2c3c(oc2c1)CCNC3 [Example 5, 1′-(1,2,3,4-Tetrahydrobenzofuro[3,2-c]pyridin-7-yl)-6-(trifluoromethyl)-[3,4′-bipyridin]-2′(1′H)-one hydrochloride]",56,
"O=c1cc(CCc2ccc(F)cn2)ccn1-c1ccc2c3c(oc2c1)CCCNC3 [Example 100, 4-(2-(5-Fluoropyridin-2-yl)ethyl)-1-(2,3,4,5-tetrahydro-1H-benzofuro[3,2-c]azepin-8-yl)pyridin-2(1H)-one hydrochloride]",8.1,
"O=c1cc(-c2ccc(C(F)(F)F)nn2)ccn1-c1ccc2c3c(oc2c1)CCCNC3 [Example 106, 1-(2,3,4,5-Tetrahydro-1H-benzofuro[3,2-c]azepin-8-yl)-4-(6-(trifluoromethyl)pyridazin-3-yl)pyridin-2(1H)-one hydrochloride]",199,
"CCN1CCc2oc3cc(-n4ccc(OCc5ccc(F)cn5)cc4=O)ccc3c2C1 [Example 24, 1-(2-Ethyl-1,2,3,4-tetrahydrobenzofuro[3,2-c]pyridin-7-yl)-4-((5-fluoropyridin-2-yl)methoxy)pyridin-2(1H)-one]",13,
"CN1CCc2c(sc3cc(-n4ccc(OCc5ccc(F)cn5)cc4=O)ccc23)C1 [Example 58, 4-((5-Fluoropyridin-2-yl)methoxy)-1-(2-methyl-1,2,3,4-tetrahydrobenzothieno[2,3-c]pyridin-7-yl)pyridin-2(1H)-one hydrochloride]",6.2,
"O=c1cc(OCc2ccc(F)cn2)ccn1-c1ccc2c3c(oc2c1)CCN(CCF)C3 [Example 72, 1-(2-(2-Fluoroethyl)-1,2,3,4-tetrahydrobenzofuro[3,2-c]pyridin-7-yl)-4-((5-fluoropyridin-2-yl)methoxy)pyridin-2(1H)-one hydrochloride]",29,
"O=c1cc(CCc2ccc(Cl)cn2)ccn1-c1ccc2c3c(sc2c1)CNCC3 [Example 125, 4-((5-Chloropyridin-2-yl)ethyl)-1-(1,2,3,4-tetrahydrobenzothieno[2,3-c]pyridin-7-yl)pyridin-2(1H)-one hydrochloride]",10,
"O=C1CN(CCc2ccc(Cl)cn2)CCN1c1ccc2c3c(oc2c1)CCCNC3 [Example 90, 4-(2-(5-Chloropyridin-2-yl)ethyl)-1-(2,3,4,5-tetrahydro-1H-benzofuro[3,2-c]azepin-8-yl)piperazin-2-one hydrochloride]",19,
"O=c1cc(OCc2ccc(F)cn2)ccn1-c1ccc2oc3c(c2c1)CCCNC3 [Example 109, 4-((5-Fluoropyridin-2-yl)methoxy)-1-(2,3,4,5-tetrahydro-1H-benzofuro[2,3-c]azepin-7-yl)pyridin-2(1H)-one hydrochloride]",,12
"CN1CCc2oc3cc(-n4ccc(OCc5ccc(F)cn5)cc4=O)ccc3c2C1 [Example 23, 4-((5-Fluoropyridin-2-yl)methoxy)-1-(2-methyl-1,2,3,4-tetrahydrobenzofuro[3,2-c]pyridin-7-yl)pyridin-2(1H)-one hydrochloride]",11,
"O=c1cc(-c2ccc(C(F)(F)F)cn2)ccn1-c1ccc2c3c(sc2c1)CNCCC3 [Example 17, 1-(2,3,4,5-Tetrahydro-1H-benzothieno[2,3-c]azepin-8-yl)-4-(5-(trifluoromethyl)pyridin-2-yl)pyridin-2(1H)-one]",927,
"O=c1cc(OCc2ccc(F)cn2)ccn1-c1ccc2c3c(oc2c1)CNCC3 [Example 3, 4-((5-Fluoropyridin-2-yl)methoxy)-1-(1,2,3,4-tetrahydrobenzofuro[2,3-c]pyridin-7-yl)pyridin-2(1H)-one hydrochloride]",59,
"O=c1cc(OCc2ccccc2)ccn1-c1ccc2c3c(oc2c1)CCN(CCF)C3 [Example 92, 4-(Benzyloxy)-1-(2-(2-fluoroethyl)-1,2,3,4-tetrahydrobenzofuro[3,2-c]pyridin-7-yl)pyridin-2(1H)-one hydrochloride]",25,
"O=c1cc(CCc2ccccc2)ccn1-c1ccc2c3c(sc2c1)CNCC3 [Example 127, 4-Phenethyl-1-(1,2,3,4-tetrahydrobenzothieno[2,3-c]pyridin-7-yl)pyridin-2(1H)-one hydrochloride]",6.2,
"O=c1cc(OCc2ccccc2)ccn1-c1ccc2sc3c(c2c1)CCNCC3 [Example 117, 4-(Benzyloxy)-1-(2,3,4,5-tetrahydro-1H-benzo[4,5]thieno[2,3-d]azepin-9-yl)pyridin-2(1H)-one hydrochloride]",103,

# The remaining lines, values ahead:
Ki [nM],inhibition at 1 µM [%],SMILES
,35,"O=c1cc(OCc2ccccc2)ccn1-c1ccc2oc3c(c2c1)CNCCC3 [Example 78, 4-(Benzyloxy)-1-(2,3,4,5-tetrahydro-1H-benzofuro[3,2-c]azepin-9-yl)pyridin-2(1H)-one hydrochloride]"
8.2,,"O=c1cc(OCc2ccccc2)ccn1-c1ccc2c3c(sc2c1)CNCCC3 [Example 19, 4-(Benzyloxy)-1-(2,3,4,5-tetrahydro-1H-benzothieno[2,3-c]azepin-8-yl)pyridin-2(1H)-one]"
5.5,,"O=c1cc(OCc2ccccc2)ccn1-c1ccc2c3c(oc2c1)CCN1CCCC31 (centres unmarked) [Example 73, 4-(Benzyloxy)-1-(1,2,3,5,6,11c-hexahydrobenzofuro[2,3-g]indolizin-9-yl)pyridin-2(1H)-one hydrochloride]"
,37,"O=c1cc(OCc2ccccc2)ccn1-c1ccc2sc3c(c2c1)CCCNC3 [Example 116, 4-(Benzyloxy)-1-(2,3,4,5-tetrahydro-1H-benzo[4,5]thieno[2,3-c]azepin-7-yl)pyridin-2(1H)-one hydrochloride]"
3.3,,"O=c1cc(OCc2ccccc2)ccn1-c1ccc2c3c(oc2c1)CCNC3 [Example 6, 4-(Benzyloxy)-1-(1,2,3,4-tetrahydrobenzofuro[3,2-c]pyridin-7-yl)pyridin-2(1H)-one hydrochloride]"
23,,"CC(=O)N1CCc2oc3cc(-n4ccc(OCc5ccccc5)cc4=O)ccc3c2C1 [Example 25, 1-(2-Acetyl-1,2,3,4-tetrahydrobenzofuro[3,2-c]pyridin-7-yl)-4-(benzyloxy)pyridin-2(1H)-one]"
3.2,,"O=c1cc(CCc2ccccc2)ccn1-c1ccc2c3c(oc2c1)CCCNC3 [Example 108, 4-Phenethyl-1-(2,3,4,5-tetrahydro-1H-benzofuro[3,2-c]azepin-8-yl)pyridin-2(1H)-one hydrochloride]"
3.3,,"O=c1cc(OCc2ccccc2)ccn1-c1ccc2c3c(sc2c1)CCCNC3 [Example 122, 4-(Benzyloxy)-1-(2,3,4,5-tetrahydro-1H-benzothieno[3,2-c]azepin-8-yl)pyridin-2(1H)-one hydrochloride]"
7.4,,"C[C@H]1Cc2oc3cc(-n4ccc(OCc5ccccc5)cc4=O)ccc3c2CN1 [Example 32, (S)-4-(Benzyloxy)-1-(3-methyl-1,2,3,4-tetrahydrobenzofuro[3,2-c]pyridin-7-yl)pyridin-2(1H)-one hydrochloride]"
9,,"CC(C)N1CCc2oc3cc(-n4ccc(OCc5ccccc5)cc4=O)ccc3c2C1 [Example 30, 4-(Benzyloxy)-1-(2-isopropyl-1,2,3,4-tetrahydrobenzofuro[3,2-c]pyridin-7-yl)pyridin-2(1H)-one hydrochloride]"
11,,"O=c1cc(OCc2ccccc2)ccn1-c1ccc2c3c(oc2c1)CC1CCC3N1 (centres unmarked) [Example 128, 4-(Benzyloxy)-1-(7,8,9,10-tetrahydro-6H-7,10-epiminocyclohepta[b]benzofuran-3-yl)pyridin-2(1H)-one hydrochloride]"
